Values joined by “and” are separate entries in the source; they are usually repeats but may differ in a detail not shown here. Identical values can stand only once. Like-named read-outs stand apart in the source and are kept apart here. Marks after values point to notes of the source that are not given here. Blank lines part the entries; values can stand above or below the molecule they belong to. Numbered stars: 1 amine (or outer) side, 2 acyl side, 3 side chain; on linkers, the order of the positions; unused ones are H or OH. Bridge positions count the residues as written; N and C are the ends. Square brackets hold non-standard residues; d marks the D form. Side chains are listed from the residue outwards. Peptide text beside a SMILES is read from it. * marks the point of attachment. γGlu = O=C(O)[C@H](CCC(=O)[*:2])N[*:1]; Palmitoyl = CCCCCCCCCCCCCCCC(=O)*; βAla = NCCC(=O)O
Experiments:
EphA4 Fc = assay: ELISA measuring inhibition of ephrin-A5 AP binding to immobilized EphA4 Fc; set-up: species or system human or mouse
[1] = In vivo half-life: active compound remaining in mouse blood, deduced from apparent IC50 of plasma in the EphA4-ephrinA5 ELISA; conditions: for half-life: in vivo, read-out: In vivo half-life (converted)
Method: To examine the persistence of compounds in the blood circulation, an approach was devised to determine the concentration of compound in mouse blood by taking advantage of the ELISA measuring inhibition of EphA4-ephrinA5 interaction.
Lipidated compounds dissolved in DMSO were diluted in […] PBS (to a 5% final DMSO concentration) or in […] PBS supplemented with 20 or 40 mg/mL BSA or 6.5 mM methyl-β-cyclodextrin for intravenous or intraperitoneal injection. Neutral pH of the compound solution was verified before injection. PEGylated compounds were dissolved in […] PBS before intraperitoneal injection. Peptides were sterile filtered before administration. Blood from each mouse was collected at 3 different time points after compound injection, the first 2 times by retro-orbital bleeding and the third time by terminal cardiac bleeding under deep anesthesia. Red blood cells were removed by centrifugation from blood treated with heparin and the resulting plasma was frozen in aliquots.
For each time point, a dose-response curves by measuring inhibition of EphA4-ephrinA5 binding at different plasma dilutions was obtained.

[2] = inhibition of ephrin-A5 AP binding to EphA4 Fc, averages of all experiments, read-out: IC50 ± SE (n) by ELISA
[3] = mouse, ip, mouse, IP (intraperitoneal administration)
[4] = mouse, iv, mouse, IV (intravenous administration)

Molecule: CCCCCCCCCCCC(=O)N[C@@H](CC(=O)NCCCC[C@H](NC(=O)CNC(=O)CNC(=O)[C@@H]1CSSC[C@H](NC(=O)[C@H](Cc2ccc(O)cc2)NC(=O)[C@@H]2CCCN2C(=O)CCN)C(=O)N[C@@H](C(C)C)C(=O)N[C@@H](Cc2ccc(O)cc2)C(=O)N[C@@H](CCCNC(=N)N)C(=O)NCCC(=O)N[C@@H](CO)C(=O)N[C@@H](Cc2c[nH]c3ccccc23)C(=O)N[C@@H](CO)C(=O)N1)C(=O)NCC(N)=O)C(=O)O [Compound 13]
IC50 (EphA4 Fc; [2]): 49 ± 11 nM

Molecule: CCCCCCCCCCCC(=O)N[C@@H](CCC(=O)NCCCC[C@H](NC(=O)CNC(=O)CNC(=O)[C@@H]1CSSC[C@H](NC(=O)[C@H](Cc2ccc(O)cc2)NC(=O)[C@@H]2CCCN2C(=O)CCN)C(=O)N[C@@H](C(C)C)C(=O)N[C@@H](Cc2ccc(O)cc2)C(=O)N[C@@H](CCCNC(=N)N)C(=O)NCCC(=O)N[C@@H](CO)C(=O)N[C@@H](Cc2c[nH]c3ccccc23)C(=O)N[C@@H](CO)C(=O)N1)C(=O)NCC(N)=O)C(=O)O [Compound 14]
FOLD INCREASE IN APPARENTIC IC COMPARED TO CONTROL ([1]; 0 minutes (control)): 1.0 fold | IC50 ([1]; 0 minutes: control, compound diluted in plasma in vitro): 81 nM | % PEPTIDE 14 REMAINING IN THE BLOOD ([1]; 0 minutes, ESTIMATED (all injected compound in 2.5 mL blood)): 100* % | FOLD INCREASE IN APPARENTIC IC COMPARED TO CONTROL ([1]; 60 minutes after intraperitoneal injection): 2.1 fold | % PEPTIDE 14 REMAINING IN THE BLOOD ([1]; 60 minutes after intraperitoneal injection, MEASURED): 48.2% | FOLD INCREASE IN APPARENTIC IC COMPARED TO CONTROL ([1]; 120 minutes after intraperitoneal injection): 5 fold and 4.6 fold | % PEPTIDE 14 REMAINING IN THE BLOOD ([1]; 120 minutes after intraperitoneal injection, MEASURED): 20% and 21.8% | FOLD INCREASE IN APPARENTIC IC COMPARED TO CONTROL ([1]; 240 minutes after intraperitoneal injection): 22.5 fold | % PEPTIDE 14 REMAINING IN THE BLOOD ([1]; 240 minutes after intraperitoneal injection, MEASURED): 4.5% | half-life [1, 3]: 30 to 60 min | half-life [1, 4]: 30 to 42 min | IC50 ([1]; plasma 60 minutes after intraperitoneal injection, mouse): 168 nM | IC50 ([1]; plasma 120 minutes after intraperitoneal injection, mouse): 371 nM | IC50 ([1]; plasma 240 minutes after intraperitoneal injection, mouse): 1820 nM | IC50 (EphA4 Fc; [2]): 52 ± 10 nM

Molecule: βAPYCVYRβASWSC-linker2-PEG (XPYCVYRXSWSCXXK; not fully specified; non-natural residues; cyclised or stapled) [APY-d3-PEG2]
potency compared with APY-d3 (EphA4 Fc; ELISA inhibition of EphA4-ephrin-A5 interaction): several fold less potent than non-PEGylated APY-d3 | IC50 (EphA4 Fc; ELISA inhibition of EphA4-ephrin-A5 interaction, read-out: IC50 (approximate)): ~80 nM

Next, values leading:

IC50 (EphA4 Fc; [2]): 2300 nM
Molecule: CCCCCCCCCCCCCCCC(=O)N[C@@H](CCC(=O)NCCCC[C@@H]1NC(=O)[C@H](Cc2ccc(O)cc2)NC(=O)[C@H](C(C)C)NC(=O)[C@@H](NC(=O)[C@H](Cc2ccc(O)cc2)NC(=O)[C@@H]2CCCN2C(=O)CCN)CSSC[C@@H](C(N)=O)NC(=O)[C@H](CO)NC(=O)[C@H](Cc2c[nH]c3ccccc23)NC(=O)[C@H](CO)NC(=O)CCNC1=O)C(=O)O [Compound 17, βAPYCVYK(palmitoyl-γE)BASWSC-NH2] (H-[βAla]PYCVYK([γGlu-Palmitoyl])[βAla]SWSC-NH2; disulfide 4-12)

half-life [1, 3]: 60 to 90 min | half-life [1, 4]: ~48 min | IC50 (EphA4 Fc; [2]): 520 ± 80 nM
Molecule: CCCCCCCCCCCCCCCC(=O)N[C@@H](CCC(=O)NCCCC[C@H](NC(=O)CNC(=O)CNC(=O)[C@@H]1CSSC[C@H](NC(=O)[C@H](Cc2ccc(O)cc2)NC(=O)[C@@H]2CCCN2C(=O)CCN)C(=O)N[C@@H](C(C)C)C(=O)N[C@@H](Cc2ccc(O)cc2)C(=O)N[C@@H](CCCNC(=N)N)C(=O)NCCC(=O)N[C@@H](CO)C(=O)N[C@@H](Cc2c[nH]c3ccccc23)C(=O)N[C@@H](CO)C(=O)N1)C(=O)NCC(N)=O)C(=O)O [Compound 18]

half-life [1, 3]: 60 to 90 min | half-life [1, 4]: ~48 min | less potent than compound 15 (EphA4 Fc): 5-6 fold | IC50 (EphA4 Fc; [2]): 160 ± 30 nM | better potency compared to compound 18 (single γGlu) (EphA4 Fc; two γGlu residues vs single γGlu, palmitoyl): ~3 fold
Molecule: CCCCCCCCCCCCCCCC(=O)N[C@@H](CCC(=O)N[C@@H](CCC(=O)NCCCC[C@H](NC(=O)CNC(=O)CNC(=O)[C@@H]1CSSC[C@H](NC(=O)[C@H](Cc2ccc(O)cc2)NC(=O)[C@@H]2CCCN2C(=O)CCN)C(=O)N[C@@H](C(C)C)C(=O)N[C@@H](Cc2ccc(O)cc2)C(=O)N[C@@H](CCCNC(=N)N)C(=O)NCCC(=O)N[C@@H](CO)C(=O)N[C@@H](Cc2c[nH]c3ccccc23)C(=O)N[C@@H](CO)C(=O)N1)C(=O)NCC(N)=O)C(=O)O)C(=O)O [Compound 19]

IC50 (EphA4 Fc; [2]): 190 ± 20 nM
Molecule: CCCCCCCCCCCCCCCC(=O)N[C@@H](CCC(=O)N[C@@H](CCC(=O)NCCCC[C@H](NC(=O)[C@H](CO)NC(=O)CNC(=O)CNC(=O)CNC(=O)[C@@H]1CSSC[C@H](NC(=O)[C@H](Cc2ccc(O)cc2)NC(=O)[C@@H]2CCCN2C(=O)CCN)C(=O)N[C@@H](C(C)C)C(=O)N[C@@H](Cc2ccc(O)cc2)C(=O)N[C@@H](CCCNC(=N)N)C(=O)NCCC(=O)N[C@@H](CO)C(=O)N[C@@H](Cc2c[nH]c3ccccc23)C(=O)N[C@@H](CO)C(=O)N1)C(=O)NCC(N)=O)C(=O)O)C(=O)O [Compound 20] (H-[βAla]PYCVYR[βAla]SWSCGGGSK([γGlu-γGlu-Palmitoyl])G-NH2; disulfide 4-12)
